Reference: PubChem BioAssay AID330 (DTP/NCI, 2004)
Values joined by “and” are separate entries in the source; they are usually repeats but may differ in a detail not shown here. Identical values can stand only once. Toxic doses and inconclusive results are not listed. The calls were made as follows: active = survival T/C of 150% or more; inactive = T/C below 125% in these data.

Test system: P388 leukemia ip, CD2F1 mice, survival T/C
Experiment: NCI In Vivo Anticancer Drug Screen. Data for tumor model P388 Leukemia (intraperitoneal) in CD2F1 (CDF1) mice
Details: endpoint: median survival time, higher = longer survival
Method in brief: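 Mice carrying the transplanted tumor received test compound or vehicle. Survival was recorded in each group, and the value is the treated-group measurement divided by that of the vehicle-treated control group.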

[1] = dose: 50.0 mg/kg/injection, schedule: Q01DX005 (ip), vehicle: Klucel (hydroxypropylcellulose) (HPC)
[2] = dose: 100.0 mg/kg/injection, schedule: Q01DX005 (ip), vehicle: Klucel (hydroxypropylcellulose) (HPC)
[3] = dose: 50.0 mg/kg/injection, schedule: Q01DX005 (ip), vehicle: saline
[4] = dose: 100.0 mg/kg/injection, schedule: Q01DX005 (ip), vehicle: saline
[5] = dose: 200.0 mg/kg/injection, schedule: Q01DX005 (ip), vehicle: saline
[6] = dose: 3.12 mg/kg/injection, schedule: Q01DX009 (ip), vehicle: Klucel (hydroxypropylcellulose) (HPC)
[7] = dose: 6.25 mg/kg/injection, schedule: Q01DX009 (ip), vehicle: Klucel (hydroxypropylcellulose) (HPC)

Measured: T/C

O=C(C[n+]1cc2ccccc2c2ccccc21)c1ccc(-c2ccccc2)cc1
inactive: dose: 6.25 mg/kg/injection, schedule: Q01DX005 (ip), vehicle: Klucel (hydroxypropylcellulose) (HPC) 104 % of control | dose: 12.5 mg/kg/injection, schedule: Q01DX005 (ip), vehicle: Klucel (hydroxypropylcellulose) (HPC) 104 % of control | dose: 25.0 mg/kg/injection, schedule: Q01DX005 (ip), vehicle: Klucel (hydroxypropylcellulose) (HPC) 110 % of control | [1] 105 % of control | [2] 109 % of control

O=C1Cc2ccccc2N1C(=O)c1ccccc1Br
inactive: dose: 100.0 mg/kg/injection, schedule: Q01DX001 (ip), vehicle: Klucel (hydroxypropylcellulose) (HPC) 106 % of control | dose: 200.0 mg/kg/injection, schedule: Q01DX001 (ip), vehicle: Klucel (hydroxypropylcellulose) (HPC) 98 % of control | dose: 400.0 mg/kg/injection, schedule: Q01DX001 (ip), vehicle: Klucel (hydroxypropylcellulose) (HPC) 90 % of control

CC1CCP(=O)(c2ccccc2)C1 (stereo not given)
inactive: [3] 104 % of control | [4] 105 % of control | [5] 105 % of control

O=c1[nH]c(=O)n(C2OC(CO)C(O)C2O)cc1O (stereo not given)
inactive: dose: 60.0 mg/kg/injection, schedule: Q01DX005 (ip), vehicle: saline 102 % of control | dose: 120.0 mg/kg/injection, schedule: Q01DX005 (ip), vehicle: saline 101 % of control | dose: 240.0 mg/kg/injection, schedule: Q01DX005 (ip), vehicle: saline 103 % of control

CCN(CC)CCCC(C)N(C)CC(C)CCC1=C(C)CCCC1(C)C (stereo not given)
inactive: dose: 12.5 mg/kg/injection, schedule: Q01DX005 (ip), vehicle: saline 97 % of control | dose: 25.0 mg/kg/injection, schedule: Q01DX005 (ip), vehicle: saline 101 % of control | [3] 104 % of control

Nc1nc(Cl)c2ncn(C3OC(CO)C(O)C3O)c2n1 (stereo not given)
inactive: dose: 200.0 mg/kg/injection, schedule: Q01DX009 (ip), vehicle: saline with Tween-80 98 % of control | dose: 400.0 mg/kg/injection, schedule: Q01DX009 (ip), vehicle: saline with Tween-80 100 % of control

CC(C)Sc1ncn[nH]1
inactive: [3] 99 % of control | [4] 100 % of control | [5] 102 % of control

[B-][N+]1(C)CC[N+]([B-])(C)CC1 (stereo not given)
inactive: dose: 5.0 mg/kg/injection, schedule: Q01DX009 (ip), vehicle: saline with Tween-80 90 % of control | dose: 10.0 mg/kg/injection, schedule: Q01DX009 (ip), vehicle: saline with Tween-80 95 % of control | dose: 20.0 mg/kg/injection, schedule: Q01DX009 (ip), vehicle: saline with Tween-80 90 % of control

CS(=O)(=O)OCCN(CCOS(C)(=O)=O)c1ccc(N=Nc2ccccc2C(=O)O)cc1
active: dose: 0.78 mg/kg/injection, schedule: Q01DX009 (ip), vehicle: Klucel (hydroxypropylcellulose) (HPC) 168 % of control | dose: 1.56 mg/kg/injection, schedule: Q01DX009 (ip), vehicle: Klucel (hydroxypropylcellulose) (HPC) 187 % of control and 206 % of control | [6] 233 % of control | dose: 3.13 mg/kg/injection, schedule: Q01DX009 (ip), vehicle: Klucel (hydroxypropylcellulose) (HPC) 242 % of control
107 % of control and 213 % of control: [7]

Cc1ccnc(NCCCNc2nccc(C)n2)n1
inactive: [1] 102 % of control | [2] 96 % of control | dose: 200.0 mg/kg/injection, schedule: Q01DX005 (ip), vehicle: Klucel (hydroxypropylcellulose) (HPC) 88 % of control

CN(C)C(C#C[Si](C)(C)C)C1(O)CCCCC1 (stereo not given)
inactive: dose: 100.0 mg/kg/injection, schedule: Q04DX003 (ip), vehicle: saline 103 % of control | dose: 200.0 mg/kg/injection, schedule: Q04DX003 (ip), vehicle: saline 105 % of control | dose: 400.0 mg/kg/injection, schedule: Q04DX003 (ip), vehicle: saline 103 % of control

NCCNCC[OH2+].NCCNCC[OH2+].O=[N+]([O-])[O-].[Cu+2]
inactive: [6] 98 % of control | [7] 111 % of control | dose: 6.25 mg/kg/injection, schedule: Q04DX003 (ip), vehicle: saline 97 % of control | dose: 12.5 mg/kg/injection, schedule: Q01DX009 (ip), vehicle: Klucel (hydroxypropylcellulose) (HPC) 93 % of control | dose: 12.5 mg/kg/injection, schedule: Q04DX003 (ip), vehicle: saline 100 % of control | dose: 25.0 mg/kg/injection, schedule: Q04DX003 (ip), vehicle: saline 86 % of control

COC(=O)C(=O)c1c(C(=O)OC)nc2nnc(N)n2c1C1CC1
inactive: dose: 60.0 mg/kg/injection, schedule: Q01DX005 (ip), vehicle: saline with Tween-80 100 % of control | dose: 120.0 mg/kg/injection, schedule: Q01DX005 (ip), vehicle: saline with Tween-80 107 % of control | dose: 240.0 mg/kg/injection, schedule: Q01DX005 (ip), vehicle: saline with Tween-80 105 % of control
